Results from patent publication US10508120B2, “TYK2 inhibitors and uses thereof” (Nimbus Lakshmi, Inc., priority 2017, dated 2019).

Assays:
[1] = biological target: JAK2 kinase domain (JH1) (Homo sapiens (Human), UniProt O60674); assay: JAK2 Radioactive Kinase Assay; format: biochemical; conditions: 10 μM compound, 10 μM ATP; for inhibition at 10 µM: read-out: JAK2 JH1% Inhibition @ 10 μM
Procedure, shortened: (§1)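 Each kinase domain is incubated with test compound at 10 μM. Activity is then measured radiometrically and expressed as percent inhibition relative to uninhibited enzyme.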

[2] = biological target: Tyk2 kinase domain (DH1) (Homo sapiens (Human), UniProt P29597); assay: Tyk2 Radioactive Kinase Assay; format: biochemical; conditions: 10 μM compound, 10 μM ATP; for inhibition at 10 µM: read-out: Tyk2 JH1% Inhibition @ 10 μM
Tyk2 kinase domain (DH1), sequence (P29597 897-1176): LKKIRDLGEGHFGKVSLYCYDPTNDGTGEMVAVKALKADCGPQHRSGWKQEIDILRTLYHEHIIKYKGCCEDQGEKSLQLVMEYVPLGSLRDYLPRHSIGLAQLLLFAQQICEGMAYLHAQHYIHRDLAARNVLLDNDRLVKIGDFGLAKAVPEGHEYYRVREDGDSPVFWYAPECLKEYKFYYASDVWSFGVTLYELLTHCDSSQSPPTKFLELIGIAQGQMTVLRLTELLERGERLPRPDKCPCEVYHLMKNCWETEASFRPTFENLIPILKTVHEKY
Procedure, shortened: as §1

[3] = biological target: Tyk2/JAK2 (heterodimeric complex) (Homo sapiens (Human), UniProt P29597); assay: IL-12 Induced pSTAT4 in Human PBMC; format: cell-based; conditions: 1.7 ng/mL IL-12
Tyk2/JAK2 (heterodimeric complex), sequence (P29597 whole entry, other chains not shown): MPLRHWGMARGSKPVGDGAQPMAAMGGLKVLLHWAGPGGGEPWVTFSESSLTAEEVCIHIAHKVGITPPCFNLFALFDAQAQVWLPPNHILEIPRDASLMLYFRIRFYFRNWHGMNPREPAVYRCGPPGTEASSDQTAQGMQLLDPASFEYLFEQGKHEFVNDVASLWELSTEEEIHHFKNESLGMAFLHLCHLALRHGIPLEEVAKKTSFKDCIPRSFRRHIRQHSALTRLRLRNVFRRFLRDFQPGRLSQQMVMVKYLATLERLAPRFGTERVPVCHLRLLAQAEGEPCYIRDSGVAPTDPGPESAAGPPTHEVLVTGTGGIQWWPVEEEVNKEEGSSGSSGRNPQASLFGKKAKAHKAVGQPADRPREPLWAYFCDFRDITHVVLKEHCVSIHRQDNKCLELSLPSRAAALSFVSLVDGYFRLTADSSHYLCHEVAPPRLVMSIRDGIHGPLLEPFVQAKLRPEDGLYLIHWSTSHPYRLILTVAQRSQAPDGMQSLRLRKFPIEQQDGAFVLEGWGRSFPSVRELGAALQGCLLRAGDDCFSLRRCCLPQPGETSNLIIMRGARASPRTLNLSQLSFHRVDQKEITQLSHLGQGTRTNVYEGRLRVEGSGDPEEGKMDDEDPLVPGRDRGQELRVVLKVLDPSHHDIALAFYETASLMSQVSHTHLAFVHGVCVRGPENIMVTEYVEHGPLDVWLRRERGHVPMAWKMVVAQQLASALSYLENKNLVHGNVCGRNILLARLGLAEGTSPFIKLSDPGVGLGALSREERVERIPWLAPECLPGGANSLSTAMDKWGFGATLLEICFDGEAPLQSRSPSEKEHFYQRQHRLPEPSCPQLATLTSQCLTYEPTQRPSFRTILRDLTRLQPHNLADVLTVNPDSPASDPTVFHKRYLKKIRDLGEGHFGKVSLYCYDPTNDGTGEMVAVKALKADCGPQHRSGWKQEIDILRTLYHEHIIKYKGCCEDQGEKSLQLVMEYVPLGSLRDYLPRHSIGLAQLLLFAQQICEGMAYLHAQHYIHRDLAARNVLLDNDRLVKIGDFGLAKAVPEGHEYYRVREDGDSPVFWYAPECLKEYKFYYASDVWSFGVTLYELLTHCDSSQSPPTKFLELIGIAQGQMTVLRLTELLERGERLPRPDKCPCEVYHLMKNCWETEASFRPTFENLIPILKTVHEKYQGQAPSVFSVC
Source text: The IL-12 Induced pSTAT4 assay evaluates the inhibition of IL-12 induced STAT4 phophorylation mediated by Tyk2/JAK2 (heterodimeric complex).

[4] = biological target: JAK2/JAK2 homdimeric complex (Homo sapiens (Human), UniProt O60674); assay: GM-CSF Induced pSTAT5 in Human PBMC; format: cell-based; conditions: GM-CSF 5 ng/mL for 20 minutes, pSTAT5 by MSD, read-out: PBMC_GMCSF_pSTAT5 IC50
JAK2/JAK2 homdimeric complex, sequence (O60674 whole entry, the tested form may be a part): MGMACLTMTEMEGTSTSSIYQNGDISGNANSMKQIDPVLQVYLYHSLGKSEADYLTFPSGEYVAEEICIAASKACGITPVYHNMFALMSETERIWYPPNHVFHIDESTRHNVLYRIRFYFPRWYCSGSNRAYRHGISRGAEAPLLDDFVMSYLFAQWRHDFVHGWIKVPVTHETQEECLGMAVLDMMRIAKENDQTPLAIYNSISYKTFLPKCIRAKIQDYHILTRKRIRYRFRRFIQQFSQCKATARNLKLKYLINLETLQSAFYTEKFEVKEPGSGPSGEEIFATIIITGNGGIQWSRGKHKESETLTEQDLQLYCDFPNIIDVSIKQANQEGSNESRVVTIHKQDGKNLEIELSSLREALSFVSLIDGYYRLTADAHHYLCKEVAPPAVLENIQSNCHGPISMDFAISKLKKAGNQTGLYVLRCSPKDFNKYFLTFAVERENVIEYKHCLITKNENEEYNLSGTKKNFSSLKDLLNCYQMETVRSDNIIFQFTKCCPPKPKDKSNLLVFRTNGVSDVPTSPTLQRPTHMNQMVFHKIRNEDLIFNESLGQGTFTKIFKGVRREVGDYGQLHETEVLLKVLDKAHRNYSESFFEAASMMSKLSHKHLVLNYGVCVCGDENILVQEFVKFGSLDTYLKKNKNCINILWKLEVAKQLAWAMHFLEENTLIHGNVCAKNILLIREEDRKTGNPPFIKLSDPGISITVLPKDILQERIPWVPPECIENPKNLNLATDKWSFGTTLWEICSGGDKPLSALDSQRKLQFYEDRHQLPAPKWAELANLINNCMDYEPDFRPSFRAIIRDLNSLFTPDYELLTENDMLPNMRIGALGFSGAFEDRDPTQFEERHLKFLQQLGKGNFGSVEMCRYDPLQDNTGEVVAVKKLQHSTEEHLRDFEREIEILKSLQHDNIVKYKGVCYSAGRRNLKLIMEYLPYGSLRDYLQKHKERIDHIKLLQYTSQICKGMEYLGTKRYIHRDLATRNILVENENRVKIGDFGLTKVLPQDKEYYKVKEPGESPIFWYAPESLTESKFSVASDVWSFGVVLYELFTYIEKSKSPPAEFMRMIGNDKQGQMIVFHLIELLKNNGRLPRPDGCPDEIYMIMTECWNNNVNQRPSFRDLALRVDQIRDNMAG
JAK2/JAK2 homdimeric complex, sequence (P32927 17-897 partner): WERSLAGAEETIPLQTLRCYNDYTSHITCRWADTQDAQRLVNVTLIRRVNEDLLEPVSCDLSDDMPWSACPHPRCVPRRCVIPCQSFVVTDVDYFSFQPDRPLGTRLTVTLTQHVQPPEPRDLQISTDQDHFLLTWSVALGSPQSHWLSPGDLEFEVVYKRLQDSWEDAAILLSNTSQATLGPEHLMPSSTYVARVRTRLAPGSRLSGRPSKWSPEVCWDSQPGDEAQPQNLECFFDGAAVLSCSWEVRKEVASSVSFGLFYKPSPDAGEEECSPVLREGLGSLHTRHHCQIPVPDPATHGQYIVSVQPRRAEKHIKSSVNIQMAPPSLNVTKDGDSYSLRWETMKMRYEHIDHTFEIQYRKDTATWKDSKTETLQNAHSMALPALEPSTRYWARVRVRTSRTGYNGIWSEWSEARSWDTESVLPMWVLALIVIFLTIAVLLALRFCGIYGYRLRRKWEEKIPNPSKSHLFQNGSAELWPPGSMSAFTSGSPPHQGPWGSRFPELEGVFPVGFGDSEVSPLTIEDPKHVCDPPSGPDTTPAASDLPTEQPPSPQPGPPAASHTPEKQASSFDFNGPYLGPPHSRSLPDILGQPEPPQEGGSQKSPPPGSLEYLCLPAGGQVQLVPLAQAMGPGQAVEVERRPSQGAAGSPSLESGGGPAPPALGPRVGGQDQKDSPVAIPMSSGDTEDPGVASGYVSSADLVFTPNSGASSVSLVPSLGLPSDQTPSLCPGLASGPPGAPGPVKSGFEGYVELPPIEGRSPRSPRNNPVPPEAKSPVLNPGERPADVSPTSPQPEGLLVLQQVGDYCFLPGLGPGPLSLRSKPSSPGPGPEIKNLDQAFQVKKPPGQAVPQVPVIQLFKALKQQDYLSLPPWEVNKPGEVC

[5] = biological target: human TYK2 (JH2domain-pseudokinase) (Homo sapiens (Human), UniProt P29597); assay: TYK2 JH2 Domain Binding Assay (KINOMEscan)
human TYK2 (JH2domain-pseudokinase), sequence (P29597 556-888): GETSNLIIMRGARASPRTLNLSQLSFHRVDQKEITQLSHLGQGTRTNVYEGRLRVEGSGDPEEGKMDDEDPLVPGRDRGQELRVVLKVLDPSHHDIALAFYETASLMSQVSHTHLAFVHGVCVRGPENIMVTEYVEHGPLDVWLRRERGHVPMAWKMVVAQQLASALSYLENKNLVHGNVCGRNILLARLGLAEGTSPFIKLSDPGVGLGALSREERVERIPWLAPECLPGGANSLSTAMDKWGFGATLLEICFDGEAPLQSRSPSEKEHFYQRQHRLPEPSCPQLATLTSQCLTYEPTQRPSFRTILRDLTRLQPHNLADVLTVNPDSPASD
Procedure, shortened: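 Kds, run in duplicate, came from Hill fits (slope fixed at −1) of an 11-point 3-fold dilution series starting at 30,000 nM. Bead-retained TYK2 JH2 (aa G556–D888)–NFkB DBD fusion, DNA-tagged and expressed in HEK293 cells, was read by qPCR after 1 h room-temperature binding in 0.9% DMSO.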

JAK2 kinase domain (JH1), sequence (O60674 849-1124): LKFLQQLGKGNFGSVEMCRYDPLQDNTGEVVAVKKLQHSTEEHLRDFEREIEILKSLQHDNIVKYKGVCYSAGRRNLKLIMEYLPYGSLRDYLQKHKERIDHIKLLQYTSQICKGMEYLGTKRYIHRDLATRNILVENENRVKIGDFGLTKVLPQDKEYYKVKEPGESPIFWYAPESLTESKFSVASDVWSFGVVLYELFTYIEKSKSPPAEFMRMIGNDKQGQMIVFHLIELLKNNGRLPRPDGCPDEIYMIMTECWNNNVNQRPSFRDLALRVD

SMILES	inhibition at 10 µM [1]	inhibition at 10 µM [2]	IC50 [3]	IC50 [4]	Kd [5]	JAK2 JH1% Inhibition @ 10 μM [1]	Tyk2 JH1% Inhibition @ 10 μM [2]
CNc1cc(Nc2cccn(C3CCCN(CCF)C3)c2=O)nc2c(C(=O)N[C@@H]3C[C@@H]3F)cnn12 (stereo partly drawn) [I-849]	< 50%	< 50%	0.1 to 0.5 µM	> 50 µM	< 0.0002 µM	–	–
CNc1cc(Nc2cc(Cl)cn([C@H]3CCCN(C)C3)c2=O)nc2c(C(=O)N[C@@H]3C[C@@H]3F)cnn12 [I-854]	< 50%	< 50%	< 0.1 µM	> 50 µM	< 0.0002 µM	–	–
CNc1cc(Nc2cccc(-c3cn(C)nc3F)n2)nc2c(C(=O)N[C@@H]3C[C@@H]3F)cnn12 [I-860]	< 50%	< 50%	< 0.1 µM	> 50 µM	< 0.0002 µM	–	–
CNc1cc(Nc2cc(Cl)cn(C3CCN(C)CC3)c2=O)nc2c(C(=O)NC3CC3)cnn12 [I-883]	< 50%	< 50%	< 0.1 µM	> 12.5 µM	< 0.0002 µM	–	–
CNc1cc(-c2cn(CCN3CCOCC3)c3ncccc23)nc2c(C(=O)N[C@H]3CC[C@@H]3OC)cnn12 [I-886]	< 50%	< 50%	< 0.1 µM	> 0.3 µM	< 0.0002 µM	–	–
CNC(=O)c1occc1Nc1cc(NC)n2ncc(C(=O)NC3CC3)c2n1 [I-887]	< 50%	< 50%	< 0.1 µM	> 50 µM	< 0.0002 µM	–	–
CNC(=O)c1occc1Nc1cc(NC)n2ncc(C(=O)N[C@@H]3C[C@@H]3F)c2n1 [I-888, N-((1R,2S)-2-fluorocyclopropyl)-7-(methylamino)-5-((2-(methylcarbamoyl)furan-3-yl)amino)pyrazolo[1,5-a]pyrimidine-3-carboxamide]	< 50%	< 50%	< 0.1 µM	> 50 µM	< 0.0002 µM	–	–
CNc1cc(Nc2cccn3ccnc23)nc2c(C(=O)NC3CC3)cnn12 [I-891]	< 50%	< 50%	< 0.1 µM	> 50 µM	< 0.0002 µM	–	–
CNc1cc(Nc2cccn3ccnc23)nc2c(C(=O)N[C@@H]3C[C@@H]3F)cnn12 [I-892]	< 50%	< 50%	< 0.1 µM	> 12.5 µM	< 0.0002 µM	–	–
CNC(=O)c1nscc1Nc1cc(NC)n2ncc(C(=O)N[C@@H]3C[C@@H]3F)c2n1 [I-914]	< 50%	< 50%	< 0.1 µM	> 50 µM	< 0.0002 µM	–	–
CNc1cc(Nc2cccn(C(C)C)c2=O)nc2c(C(=O)N[C@@H]3CC[C@H]3O)cnn12 [I-918]	< 50%	< 50%	< 0.1 µM	> 50 µM	< 0.0002 µM	–	–
CNc1cc(Nc2cc(Cl)cn(C3CCN(C)CC3)c2=O)nc2c(C(=O)N[C@@H]3CC[C@H]3O)cnn12 [I-930]	< 50%	< 50%	< 0.1 µM	> 50 µM	< 0.0002 µM	–	–
CNc1cc(Nc2cccn([C@@H]3CCC[C@H](OC)C3)c2=O)nc2c(C(=O)NCC(C)(C)CO)cnn12 [I-951]	< 50%	< 50%	< 0.1 µM	> 50 µM	< 0.0002 µM	–	–
CNc1cc(Nc2cccn([C@H]3CC[C@](C)(OC)CC3)c2=O)nc2c(C(=O)N[C@@H]3CC[C@H]3OC)cnn12 [I-959]	–	–	< 0.1 µM	> 50 µM	< 0.0002 µM	A (percent inhibition at 10 μM lower than 50)	A (percent inhibition at 10 μM lower than 50)
CNc1cc(-c2cn(C3CC3)c3ncccc23)nc2c(C(=O)NC3CC3)cnn12 [I-960, N-cyclopropyl-5-(1-cyclopropyl-1H-pyrrolo[2,3-b]pyridin-3-yl)-7-(methylamino)pyrazolo[1,5-a]pyrimidine-3-carboxamide]	< 50%	< 50%	< 0.1 µM	> 50 µM	< 0.0002 µM	–	–
CNc1cc(-c2cn(C3CC3)c3ncccc23)nc2c(C(=O)N[C@@H]3C[C@@H]3F)cnn12 [I-961, 5-(1-cyclopropyl-1H-pyrrolo[2,3-b]pyridine-3-yl)-N-((1R,2S)-2-fluorocyclopropyl)-7-(methylamino)pyrazolo[1,5-a]pyrimidine-3-carboxamide]	< 50%	< 50%	< 0.1 µM	> 50 µM	< 0.0002 µM	–	–
CNc1cc(Nc2cccn(C3CCCCC3)c2=O)nc2c(C(=O)N[C@@H]3CC[C@@H]3O)cnn12 [I-1000]	< 50%	< 50%	< 0.1 µM	> 50 µM	< 0.0002 µM	–	–
CNc1cc(Nc2cccn(C3CCCCC3)c2=O)nc2c(C(=O)N[C@@H]3CC[C@H]3O)cnn12 [I-1002]	–	–	< 0.1 µM	> 50 µM	< 0.0002 µM	A (percent inhibition at 10 μM lower than 50)	A (percent inhibition at 10 μM lower than 50)
